In patent US7507860B2 (Pfizer Inc., priority 2004, dated 2009):
Numbering of substitutions follows the chain as printed. Where two headings read alike, the source gives them in different places.

Legend:
[1] = target: T1, human androgen receptor (hAR) (Homo sapiens, UniProt P10275); experiment: Competitive binding analysis on baculovirus/Sf9 generated hAR extracts with 3H-DHT tracer; conditions: hAR extract, 1 nM 3H-DHT, one hour at 4° C, mean of multiple tests
T1 construct: made in house; host or cells: baculovirus/Sf9 insect cells (crude extract)
T1 sequence (P10275 1-920): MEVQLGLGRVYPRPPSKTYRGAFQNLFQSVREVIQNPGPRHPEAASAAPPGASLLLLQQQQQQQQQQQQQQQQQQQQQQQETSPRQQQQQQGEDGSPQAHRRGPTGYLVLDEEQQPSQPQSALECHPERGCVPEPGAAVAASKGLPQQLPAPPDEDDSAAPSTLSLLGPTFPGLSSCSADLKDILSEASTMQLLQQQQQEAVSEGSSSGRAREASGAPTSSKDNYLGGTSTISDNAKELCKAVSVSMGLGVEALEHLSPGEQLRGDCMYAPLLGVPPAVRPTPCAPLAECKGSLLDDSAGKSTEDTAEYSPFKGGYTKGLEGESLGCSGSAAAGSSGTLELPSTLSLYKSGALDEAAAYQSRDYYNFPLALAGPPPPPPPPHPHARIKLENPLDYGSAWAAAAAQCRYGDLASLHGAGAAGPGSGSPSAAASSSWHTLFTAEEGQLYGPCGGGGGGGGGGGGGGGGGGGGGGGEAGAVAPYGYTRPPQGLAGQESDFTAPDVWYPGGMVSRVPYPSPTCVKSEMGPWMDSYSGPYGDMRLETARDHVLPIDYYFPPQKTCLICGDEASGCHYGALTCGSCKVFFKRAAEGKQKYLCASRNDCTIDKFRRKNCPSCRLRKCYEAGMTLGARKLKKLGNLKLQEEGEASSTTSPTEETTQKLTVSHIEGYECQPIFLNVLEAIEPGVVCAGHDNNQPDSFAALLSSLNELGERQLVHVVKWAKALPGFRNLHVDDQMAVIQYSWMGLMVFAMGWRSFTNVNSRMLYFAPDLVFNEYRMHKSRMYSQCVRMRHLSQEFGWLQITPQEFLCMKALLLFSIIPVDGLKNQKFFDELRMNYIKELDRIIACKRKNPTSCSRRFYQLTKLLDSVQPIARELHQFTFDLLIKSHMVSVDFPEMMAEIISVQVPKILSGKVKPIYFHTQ
Method in brief: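 Baculovirus/Sf9-expressed hAR extract incubated with hydroxylapatite, 1 nM 3H-DHT and decreasing compound concentrations for 1 h at 4 °C, then washed three times to remove unbound tracer. Bound 3H-DHT compared with no-competitor maximum; affinity given as concentration inhibiting half of maximum binding, mean of multiple tests.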

[2] = target: T2, androgen receptor (Homo sapiens, UniProt P10275); experiment: AR antagonist cell assay (MDA-MB453-MMTV clone 54-19 luciferase reporter, 100 pM DHT); type: cell-based
T2 sequence (P10275 1-920 Q868H): T1 sequence (P10275 1-920) with Q868H
Method in brief: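 MDA-MB453 cells stably carrying an MMTV-ARE firefly luciferase reporter were plated overnight at 10,000/well in phenol-red-free, charcoal-stripped serum medium. Cells were stimulated with 100 pM DHT (final) for 17 hr at 37 °C, and AR antagonism was read as luciferase signal; values are means of multiple tests.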

[3] = MDA-MB453-MMTV clone 54-19, inhibition of 100 pM DHT induction, 17 hr; mean of multiple tests; read-out: AR Cell IC50
[4] = read-out: AR Cell IC50; MDA-MB453-MMTV clone 54-19, inhibition of 100 pM DHT induction, 17 hr; mean of multiple tests

Row | Compound | IC50 ([1]; read-out: AR Binding IC50) [nM] | IC50 [2, 3] [nM] | IC50 ([1]; AR Binding IC50 (nM)) [nM] | IC50 [2, 4] [nM]
1 | CCC(COC)NC(=O)C(CC(C)C)Oc1ccc(C#N)c(C(F)(F)F)c1 (stereo not shown) [Example 82, 2-(4-Cyano-3-trifluoromethyl-phenoxy)-4-methyl-pentanoic acid (1-methoxymethyl-propyl)-amide] | 218 | > 1000 |  | 
2 | CSCCNC(=O)C(CC(C)C)Oc1ccc(C#N)c(C(F)(F)F)c1 (stereo not shown) [Example 83, 2-(4-Cyano-3-trifluoromethyl-phenoxy)-4-methyl-pentanoic acid (2-methylsulfanyl-ethyl)-amide] | 85 | > 1000 |  | 
3 | Cc1c(O)cccc1NC(=O)C(CC(C)C)Oc1ccc(C#N)c(C(F)(F)F)c1 (stereo not shown) [Example 84, 2-(4-Cyano-3-trifluoromethyl-phenoxy)-4-methyl-pentanoic acid (3-hydroxy-2-methyl-phenyl)-amide] | 112 | > 1000 |  | 
4 | CCCOCCCNC(=O)C(CC(C)C)Oc1ccc(C#N)c(C(F)(F)F)c1 (stereo not shown) [Example 85, 2-(4-Cyano-3-trifluoromethyl-phenoxy)-4-methyl-pentanoic acid (3-propoxy-propyl)-amide] | 117 | > 1000 |  | 
5 | CCN(CCOC)C(=O)C(CC(C)C)Oc1ccc(C#N)c(C(F)(F)F)c1 (stereo not shown) [Example 86, 2-(4-Cyano-3-trifluoromethyl-phenoxy)-4-methyl-pentanoic acid ethyl(2-methoxyethyl)-amide] | 25 | > 1000 |  | 
6 | COc1ccccc1NC(=O)C(CC(C)C)Oc1ccc(C#N)c(C(F)(F)F)c1 (stereo not shown) [Example 87, 2-(4-Cyano-3-trifluoromethyl-phenoxy)-4-methyl-pentanoic acid (2-methoxy-phenyl)-amide] | 119 | > 1000 |  | 
7 | CCCCC(Oc1ccc(C#N)c(C(F)(F)F)c1)C(=O)NCc1ccccc1 (stereo not shown) [Example 91, 2-(4-Cyano-3-trifluoromethyl-phenoxy)-hexanoic acid benzylamide] | 70 | 535 |  | 
8 | CC(C)C(Oc1ccc(C#N)c(C(F)(F)F)c1)C(=O)NCc1ccccc1 (stereo not shown) [Example 92, N-Benzyl-2-(4-Cyano-3-trifluoromethyl-phenoxy)-3-methyl-butyramide] | 348 | 562 |  | 
9 | CCC(Oc1ccc(C#N)c(C(F)(F)F)c1)C(=O)NCc1ccccc1 (stereo not shown) [Example 93, N-Benzyl-2-(4-Cyano-3-trifluoromethyl-phenoxy)-butyramide] |  | 563 | 485 | 
10 | CC(C)C[C@@H](Oc1ccc(C#N)c(C(F)(F)F)c1)C(=O)NCc1ccccc1 [Example 94, (R)-2-(4-Cyano-3-trifluoromethyl-phenoxy)-4-methyl-pentanoic acid benzylamide] |  | 140 | 66 | 
11 | CCC[C@@H](Oc1ccc(C#N)c(C(F)(F)F)c1)C(=O)NCc1ccccc1 [Example 95, (R)-2-(4-Cyano-3-trifluoromethyl-phenoxy)-pentanoic acid benzylamide] |  | 32 | 126 | 
12 | CCC[C@@H](Oc1ccc(C#N)c(C(F)(F)F)c1)C(=O)NCc1ccccc1C [Example 96, (R)-2-(Cyano-3-trifluoromethyl-phenoxy)-pentanoic acid 2-methyl-benzylamide] |  | 138 | 95 | 
13 | CCCC(Oc1ccc(C#N)c(C(F)(F)F)c1)C(=O)NCCc1c[nH]c2ccc(OC)cc12 (stereo not shown) [Example 97, 2-(4-Cyano-3-trifluoromethyl-phenoxy)-pentanoic acid [2-(5-methoxy-1H-indol-3-yl)-ethyl]-amide] | 111 |  |  | 26
14 | CCCC(Oc1ccc(C#N)c(Cl)c1)C(=O)OCC (stereo not shown) [Example 99, 2-(3-Chloro-4-cyano-phenoxy)-pentanoic acid ethyl ester] | 31 | 749 |  | 
15 | CCCC(Oc1ccc(C#N)c(Cl)c1)C(=O)NCCc1c[nH]c2ccccc12 (stereo not shown) [Example 101, 2-(3-Chloro-4-cyano-phenoxy)-pentanoic acid [2-(1H-indol-3-yl)-ethyl]-amide] | 53 | 38 |  | 
16 | CCCC(Oc1ccc(C#N)c(Cl)c1)C(=O)NCc1ccccc1 (stereo not shown) [Example 102, 2-(3-Chloro-4-cyano-phenoxy)-pentanoic acid benzylamide] | 125 |  |  | 27
17 | CCCC(Oc1ccc(C#N)c(Cl)c1)C(=O)NCCc1ccc(O)cc1 (stereo not shown) [Example 103, 2-(3-Chloro-4-cyano-phenoxy)-pentanoic acid [2-(4-hydroxy-phenyl)-ethyl]-amide] | 140 |  |  | 87
18 | CCC[C@H](Oc1ccc(C#N)c(Cl)c1)C(=O)NCc1ccccc1 [Example 104, (S)-2-(3-Chloro-4-cyano-phenoxy)-pentanoic acid benzylamide] | 241 |  |  | 7
19 | CCC[C@H](Oc1ccc(C#N)c(Cl)c1)C(=O)NCCc1ccc(O)cc1 [Example 105, (S)-2-(3-Chloro-4-cyano-phenoxy)-pentanoic acid [2-(4-hydroxy-phenyl)ethyl]amide] | 241 |  |  | 88
20 | CCC[C@H](Oc1ccc(C#N)c(Cl)c1)C(=O)NCCc1c[nH]c2ccccc12 [Example 106, (S)-2-(3-Chloro-4-cyano-phenoxy)-pentanoic acid [2-(1H-indol-3-yl)-ethyl]-amide] | 47 | 3 |  | 
21 | CCC[C@H](Oc1ccc(C#N)c(C(F)(F)F)c1)C(=O)NCc1cccc(C)c1 [Example 107, (S)-2-(4-Cyano-3-trifluoromethyl-phenoxy)-pentanoic acid-3-methyl-benzylamide] | 93 | < 0.32 |  | 
22 | CCC[C@H](Oc1ccc(C#N)c(C(F)(F)F)c1)C(=O)NCCc1c[nH]c2ccccc12 [Example 108, (S)-2-(4-Cyano-3-trifluoromethyl-phenoxy)-pentanoic acid [2-(1H-indol-3-yl)ethyl]-amide] | 21 | < 0.32 |  | 
23 | CCC[C@H](Oc1ccc(C#N)c(C(F)(F)F)c1)C(=O)NCCc1ccc(O)cc1 [Example 109] | 251 | 58 |  | 
24 | CC(C)C[C@@H](Oc1ccc(C#N)c(C(F)(F)F)c1)C(=O)NCCc1ccc(O)cc1 [Example 111] | 148 | 164 |  | 
25 | CCCC(Oc1ccc(C#N)c(C(F)(F)F)c1)C(=O)NC(C)c1ccc(OC)cc1 (stereo not shown) [Example 113, 2-(4-Cyano-3-trifluoromethyl-phenoxy)-pentanoic acid [1-(4-methoxy-phenyl)-ethyl]-amide] | 654 | 681 |  | 
26 | CCSCCNC(=O)C(CC(C)C)Oc1ccc(C#N)c(C(F)(F)F)c1 (stereo not shown) [Example 114, 2-(4-Cyano-3-trifluoromethyl-phenoxy)-4-methyl-pentanoic acid (2-ethyl sulfanyl-ethyl)-amide] | 102 | 727 |  | 
